# In US7326809B2, “Salts of 4- or 5-aminosalicylic acid” (Antibe Therapeutics Inc., priority 2004, dated 2008):
# Where a name gives a salt, the structure may show the parent alone. Read-outs that look alike come from different tables or passages of the source.
# Assays:
# [1] = following oral ingestion of 500 mg; cited from earlier work
# [2] = In vitro anti-oxidant assay with a coloured, stable free radical; assay type: biochemical; settings: for % Free Radical Scavenging: in ethanol, means of quadruplicate experiments; for IC50: concentration that reduced the levels of the free radical by 50%, read-out: 50% Inhibitory Concentrations IC50
# Protocol: One of the mechanisms through which mesalamine is thought to provide benefit in the treatment of inflammatory bowel disease is through scavenging of free radicals. Therefore, the anti-oxidant activity of mesalamine was compared to that of L-arginine salt of mesalamine and L-arginine. Anti-oxidant activity of the test drugs was measured in an in vitro assay that employs a coloured, stable free radical as outlined in Vaananen, P. M. et al. (1992) Inflammation 16: 227-240 and Smith, R. C. et al. (1987) Free Rad. Biol. Med. 3: 251-257, both incorporated herein by reference. Drugs with anti-oxidant activity reduce this reagent resulting in a change in colour, which can be detected spectrophotometrically. A range of concentrations of L-arginine salt of mesalamine, mesalamine and L-arginine, all prepared in ethanol, were tested and the concentration that reduced the levels of the free radical by 50% were calculated.
# [3] = tested on: TNF-α, IFN-γ, IL-1, IL-2, IL-10, IL-12 p40, RANTES, COX-1, COX-2, eNOS, iNOS mRNA; assay: mRNA expression (RT-PCR) of inflammatory cytokines and mediators in colon, TNBS-induced colitis in mice; assay type: in vivo; settings: equimolar to mesalamine 50 mg/kg
# Protocol: The same model was used as described above. In this example, the effects of mesalamine (50 mg/kg) were compared to those of equimolar doses of L-arginine salt of mesalamine. Tissues were processed for measurement of a number of genes for inflammatory cytokines and other mediators.
# In particular, mRNA expression in mice of tumour necrosis factor-alpha (TNF-α), interferon gamma (IFN-γ), colonic interleukin (IL)-1, IL-2, IL-10, IL-12 p40, RANTES, cyclooxygenase (COX)-1, COX-2, constitutive endothelial nitric oxide synthase (eNOS), and inducible NOS (iNOS) was measured as described in Wallace et al. (1999) Gastroenterology 117: 557-566, incorporated herein by reference.
# Briefly, reverse transcription-polymerase chain reaction (RT-PCR) was used to detect and quantify mRNA of the particular cytokine/chemokine/enzyme. Glyceraldehyde-3-phosphate dehydrogenase (GAPDH) was used as the “housekeeping gene” for mRNA expression (i.e., as an internal control). For each sample, the ratio of the amplification of the target gene to the amplification of GAPDH (expression of each is measured by performing densitometry on gels) was obtained. Comparisons were then made between the relative amplification (expression) of the target gene in tissues for the treatment groups in comparison to the expression in tissues from healthy controls. Thus, the data shown in the following FIGS. represent the relative expression of the target gene (normalized to GAPDH expression) as a ratio to the expression in healthy controls.
# TNBS-induced colitis [4] = assay: TNBS-induced colitis in mice: disease activity score and MPO activity; assay type: in vivo, Balb/c mice; settings: oral every 12 h for 5 days, dose equimolar to mesalamine 50 mg/kg
# Protocol: A standard experimental animal model of colitis induced by intracolonic administration of 2,4,6-trinitrobenzene sulfonic acid (TNBS) to mice is used in the following example. A detailed description of this model has been published (Santucci et al. (2003) Gastroenterology 124:1381-94) and is incorporated herein by reference. Briefly, 6-8 week old Balb/c mice were given TNBS intracolonically at a dose of 1.5 mg in 0.1 mL of 30% ethanol. The mice were randomized to the various treatment groups (n=6 per group). Beginning one hour later and continuing every 12 h for 5 days, the mice were treated orally with vehicle (1% carboxymethylcellulose (CMC)), mesalamine (50 mg/kg) or with an equimolar dose of L-arginine salt of mesalamine.
# The mice were evaluated (blindly) on the final day of the study for the presence of diarrhea and fecal occult blood, and their body weights were measured. […] The mice were then sacrificed and a sample of the colon was excised for measurement of myeloperoxidase (MPO) activity, an indicia for granulocyte infiltration.
# TNBS-induced colitis [5] = assay: TNBS-induced colitis in rats: edema, MPO activity, body weight; assay type: in vivo, male, Wistar rats; settings: every 12 h for 4 days, salt at 50% of the dose equimolar to mesalamine 50 mg/kg
# Protocol: Colitis was induced in male, Wistar rats by intracolonic administration of TNBS, as outlined in Wallace et al. (1990), Am J Physiol. 258: G527-G534, incorporated herein by reference. Briefly, beginning 1 h later and continuing at 12 h intervals for 4 days, the rats were treated with vehicle (1% CMC), mesalamine (50 mg/kg), L-arginine (equimolar) or L-arginine salt of mesalamine (50% of the equimolar dose). Changes in body weight were recorded, as were incidences of mortality. At the end of the study, the colon was excised and the thickness of the bowel wall was measured with digital callipers, as an index of edema. Also, a sample of tissue was processed for measurement of myeloperoxidase (MPO) activity, as an index of granulocyte infiltration.
SMILES,% Free Radical Scavenging ([2]; 0.03 mM) [%],% Free Radical Scavenging ([2]; 0.3 mM) [%],% Free Radical Scavenging ([2]; 1 mM) [%],% Free Radical Scavenging ([2]; 3 mM) [%],% Free Radical Scavenging ([2]; 10 mM) [%],IC50 [2] [µM],% Free Radical Scavenging ([2]; 0.1 mM) [%],other results
"Nc1ccc(O)c(C(=O)O)c1 [Mesalamine, 5-aminosalicylic acid]",2.2,23.6,50.3,96.1,100,1250,–,luminal concentrations of mesalamine in the colon [1]: 1 mM
"N=C(N)NCCC[C@H](N)C(=O)O.Nc1ccc(O)c(C(=O)O)c1 [L-arginine salt of mesalamine, L-arginine salt of 5-aminosalicylic acid]",5.2,57.7,96.3,100,100,–,23.9,"COX-1 mRNA expression ([3]; colonic): suppressed; COX-2 mRNA expression ([3]; colonic): suppressed; eNOS mRNA expression ([3]; colonic): suppressed; iNOS mRNA expression ([3]; colonic): suppressed; IL-10 mRNA expression [3]: did not suppress; expression of mRNA for several pro-inflammatory cytokines and chemokines [3]: suppressed; mRNA expression of inflammatory cytokines and other mediators, every endpoint (FIGS. 3 to 8) ([3]; normalized to GAPDH, ratio to healthy controls): superior to mesalamine in every endpoint; myeloperoxidase (MPO) activity (granulocyte infiltration) (TNBS-induced colitis [4]; colon sample): superior to mesalamine alone in reducing MPO activity; disease activity score (TNBS-induced colitis [4]; 0 to 4 scale): superior to mesalamine alone in reducing the disease; anti-oxidant potency relative to mesalamine ([2]; from IC50 values): about three-times more potent; body weight loss (TNBS-induced colitis [5]): superior to both mesalamine and L-arginine; colitis-associated edema (thickness of the bowel wall) (TNBS-induced colitis [5]): superior to both mesalamine and L-arginine; myeloperoxidase (MPO) activity (granulocyte infiltration) (TNBS-induced colitis [5]): superior to both mesalamine and L-arginine"
"Nc1ccc(O)c(C(=O)O)c1 [L-arginine salt of mesalamine, L-arginine salt of 5-aminosalicylic acid]",–,–,–,–,–,–,–,IC50 ([2]; listed as ATB-428): 407 µM
N=C(N)NCCC[C@H](N)C(=O)O [L-arginine],0,0,0,0,0,> 10000,0,anti-oxidant activity ([2]; concentrations of up to 10 mM): did not exhibit any anti-oxidant activity; anti-oxidant activity (in words) ([2]; summary statement): very little anti-oxidant activity; free radical scavenging effects (in words) ([2]; summary statement): no free radical scavenging effects
